# pIC50: −log10 of the molar value.
# How the values were obtained:
# [1] = Pharmacokinetics after intravenous and oral administration in monkeys; type: in vivo; details: Monkey; iv dosing 1 mg/kg
# Protocol: (§1) The LC/MS/MS system used in the analysis consists of an Agilent 1200 Series vacuum degasser, binary pump, well-plate autosampler, thermostatted column compartment, the Agilent G6430 Triple Quadrupole Mass Spectrometer with an electrosprayionization (ESI) source. Quantitative analysis was carried out using MRM mode. The parameters for MRM transitions are in the Table A.
# (§2) An Agilent XDB-C18, 2.1×30 mm, 3.5 M column was used for the analysis. 5 L of the samples were injected. Analysis condition: The mobile phase was 0.1% formic acid in water (A) and 0.1% formic acid in methanol (B). The flow rate was 0.4 mL/min. And the gradient of Mobile phase was in the Table B.
# (§3) Alternatively, an Agilent 6330 series LC/MS/MS spectrometer equipped with G1312A binary pumps, a G1367A autosampler and a G1314C UV detector were used in the analysis. An ESI source was used on the LC/MS/MS spectrometer. The analysis was done in positive ion mode as appropriate and the MRM transition for each analyte was optimized using standard solution. A Capcell MP-C18 100×4.6 mm I.D., […] column (Phenomenex, Torrance, Calif., USA) was used during the analysis. The mobile phase was 5 mM ammonia acetate, 0.1% MeOH in water (A): 5 mM ammonia acetate, 0.1% MeOH in acetonitrile (B) (70:30, v/v). The flow rate was 0.6 mL/min. Column was maintained at ambient temperature. 20 μL of the samples were injected.
# (§4) The compounds disclosed herein are assessed in pharmacokinetic studies in mice, rats, dogs or monkeys. The compounds are administered as a water solution, 2% HPMC+1% TWEEN®80 in water solution, 5% DMSO+5% solutol in saline, 4% MC suspension or capsule. For the intravenous administration, the animals are generally given at 1 or 2 mg/kg dose. For the oral (p.o.) dosing, mice and rats are generally given 5 or 10 mg/kg dose, and dogs and monkeys are generally given 10 mg/kg dose. […] The plasma solutions are collected, stored at −20° C. or −70° C. until analyzed by LC/MS/MS as described above.
# [2] = Pharmacokinetics after intravenous and oral administration in dogs; type: in vivo; details: Dog; iv dosing 1 mg/kg
# Protocol: as §1, §2, §3, §4
# [3] = Pharmacokinetics after intravenous and oral administration in rats; type: in vivo; details: for CL/F / bioavailability: Rats; for CL/F: iv dosing, dose 1 mg/kg (0.5 for Ex. 1, 10, 11, 35; 0.48 for Ex. 24); for AUC(0-t) / half-life / Vd / bioavailability: rat, plasma; for AUC(0-t) / half-life / Vd: iv, 1 mg/kg; for Vd: read-out: Vss; for bioavailability: oral (p.o.) generally 5 or 10 mg/kg versus iv dosing
# Summary of the method: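 Dosing used solution, suspension or capsule formulations: 1 or 2 mg/kg IV in all species; PO 5 or 10 mg/kg in mice and rats, 10 mg/kg in dogs and monkeys. Plasma sampled from 0.083 or 0.25 h up to 24 h post-dose; concentrations determined by LC/MS/MS in MRM mode.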
# [4] = Pharmacokinetics after intravenous and oral administration in mice; type: in vivo; details: Mouse; iv dosing 1 mg/kg
# Protocol: as §1, §2
# as §3, with “The mobile phase was 5 mM ammonia acetate, 0.1% MeOH in water (A): 5 mM ammonia acetate, 0.1% MeOH in acetonitrile (B) (70:30, v/v). The flow rate was 0.6 mL/min. Column was maintained at ambient temperature. 20 μL of the samples were injected.” left out
# The compounds disclosed herein are assessed in pharmacokinetic studies in mice, rats, dogs or monkeys. […] The plasma solutions are collected, stored at −20° C. or −70° C. until analyzed by LC/MS/MS as described above.
# PI3K (p110α/p85α) (h) = target: T1, PI3K (p110α/p85α) (h) (Homo sapiens, UniProt P42336); test: PI3K (p110α/p85α) (h) non-radioactive HTRF kinase assay; type: biochemical; details: Kinase inhibition data; performed at Millipore UK Ltd
# T1 construct: purchased Millipore UK Ltd
# Protocol: (§5) The above assay procedure can be used to determine the IC50 for inhibition and/or the inhibition constant, Ki.
# PI3K (p110α/p85α) (h) [Non-Radioactive Assay]
# (§6) PI3K (p110α/p85α) (h) is incubated in assay buffer containing 10 μM phosphatidylinositol 4,5-bisphosphate and MgATP (concentration as required). The reaction is initiated by the addition of the ATP solution. After incubation for 30 minutes at room temperature, the reaction is stopped by the addition of stop solution containing EDTA and biotinylated phosphatidylinositol-3,4,5-trisphosphate. Finally, detection buffer is added, which contains europium-labelled anti-GST monoclonal antibody, GST-tagged GRP1 PH domain and streptavidin allophycocyanin. The plate is then read in timeresolved fluorescence mode and the homogenous time-resolved fluorescence (HTRF) signal is determined according to the formula HTRF=10000×(Em665 nm/Em620 nm).
# (§7) The kinase assays described herein were performed at Millipore UK Ltd, Dundee Technology Park, Dundee DD2 1SW, UK.
# PI3K (p120γ) (h) = target: T2, PI3K (p120γ) (h) (Homo sapiens, UniProt P48736); test: PI3K (p120γ) (h) non-radioactive HTRF kinase assay; type: biochemical; details: Kinase inhibition data; performed at Millipore UK Ltd
# T2 construct: purchased Millipore UK Ltd
# Protocol: as §5
# PI3K (p120γ) (h) [Non-Radioactive Assay]
# as §6, with “(p120γ)” for “(p110α/p85α)”, “M phosphatidylinositol-4, 5-bisphosphate” for “μM phosphatidylinositol 4,5-bisphosphate”, “MgATP mix.” for “ATP solution.”, “streptavidin-allophycocyanin.” for “streptavidin allophycocyanin.”
# as §7
# PI3K (p110δ/p85α) (h) = target: T3, PI3K (p110δ/p85α) (h) (Homo sapiens, UniProt O00329); test: PI3K (p110δ/p85α) (h) non-radioactive HTRF kinase assay; type: biochemical; details: Kinase inhibition data; performed at Millipore UK Ltd
# T3 construct: purchased Millipore UK Ltd
# Protocol: as §5
# PI3K (p110δ/p85α) (h) [Non-Radioactive Assay]
# as §6, with “(p110δ/p85α)” for “(p110α/p85α)”, “phosphatidylinositol-4, 5-bisphosphate” for “phosphatidylinositol 4,5-bisphosphate”, “MgATP mix.” for “ATP solution.”, “streptavidin-allophycocyanin.” for “streptavidin allophycocyanin.”
# as §7
# PI3K (h) p110β/p85α = target: T4, PI3K (h) p110β/p85α (Homo sapiens, UniProt P42338); test: PI3K (p110β/p85α) (h) non-radioactive HTRF kinase assay; type: biochemical; details: Kinase inhibition data; performed at Millipore UK Ltd
# T4 construct: purchased Millipore UK Ltd
# [5] = Compound stability in human liver microsomes; type: in vitro ADME; details: for half-life at 5 μM: human liver microsomes 0.5 mg protein/mL, compound 5 μM, NADPH 1.0 mM, pH 7.4, 37° C., read-out: Human T1/2; for CLint scaled at 5 μM: liver microsomes, pH 7.4, in vivo CLint extrapolated from human liver microsome incubation
# Protocol: (§8) Human or rat liver microsomes incubations were conducted in duplicate in polypropylene tubes. The typical incubation mixtures consisted of human or rat liver microsomes (0.5 mg protein/mL), compounds of interest (5 μM) and NADPH (1.0 mM) in a total volume of 200 μL potassium phosphate buffer (PBS, 100 mM, pH 7.4). Compounds were dissolved in DMSO and diluted with PBS such that the final concentration of DMSO was 0.05%. The enzymatic reactions were commenced with the addition of protein after a 3-min preincubation and incubated in a water bath open to the air at 37° C. Reactions were terminated at various time points (0, 5, 10, 15, 30, 60 min) by adding equal volume of ice-cold acetonitrile. The samples were stored at −80° C. until LC/MS/MS assays.
# (§9) The concentrations of compounds in the incubation mixtures of human or rat liver microsomes were determined by a LC/MS/MS method. The ranges of the linearity in the concentration range were determined for each tested compounds.
# (§10) A parallel incubation was performed using denatured microsomes as the negative control, and reactions were terminated at various time points (0, 15, 60 min) after incubation at 37° C.
# (§11) Dextromethorphan (70 μM) was selected as the positive control, and reactions were terminated at various time points (0, 5, 10, 15, 30, 60 min) after incubation at 37° C. Both positive and negative control samples were included in each assay to ensure the integrity of the microsomal incubation system.
# (§12) The concentrations of compounds in human or rat liver microsome incubations were plotted as a percentage of the relevant zero time point control for each reaction. The in vivo CLint were extrapolated (ref.: Naritomi, Y.; Terashita, S.; Kimura, S.; Suzuki, A.; Kagayama, A.; and Sugiyama, Y.; Prediction of human hepatic clearance from in vivo animal experiments and in vitro metabolic studies with liver microsomes from animals and humans. Drug Metab. Dispos., 2001, 29: 1316-1324).
# [6] = Compound stability in rat liver microsomes; type: in vitro ADME; details: for CLint scaled at 5 μM: liver microsomes, pH 7.4, in vivo CLint extrapolated from rat liver microsome incubation; for half-life at 5 μM: rat liver microsomes 0.5 mg protein/mL, compound 5 μM, NADPH 1.0 mM, pH 7.4, 37° C., read-out: Rat T1/2
# Protocol: as §8, §9, §10, §11, §12
# T4 sequence (P42338 whole entry): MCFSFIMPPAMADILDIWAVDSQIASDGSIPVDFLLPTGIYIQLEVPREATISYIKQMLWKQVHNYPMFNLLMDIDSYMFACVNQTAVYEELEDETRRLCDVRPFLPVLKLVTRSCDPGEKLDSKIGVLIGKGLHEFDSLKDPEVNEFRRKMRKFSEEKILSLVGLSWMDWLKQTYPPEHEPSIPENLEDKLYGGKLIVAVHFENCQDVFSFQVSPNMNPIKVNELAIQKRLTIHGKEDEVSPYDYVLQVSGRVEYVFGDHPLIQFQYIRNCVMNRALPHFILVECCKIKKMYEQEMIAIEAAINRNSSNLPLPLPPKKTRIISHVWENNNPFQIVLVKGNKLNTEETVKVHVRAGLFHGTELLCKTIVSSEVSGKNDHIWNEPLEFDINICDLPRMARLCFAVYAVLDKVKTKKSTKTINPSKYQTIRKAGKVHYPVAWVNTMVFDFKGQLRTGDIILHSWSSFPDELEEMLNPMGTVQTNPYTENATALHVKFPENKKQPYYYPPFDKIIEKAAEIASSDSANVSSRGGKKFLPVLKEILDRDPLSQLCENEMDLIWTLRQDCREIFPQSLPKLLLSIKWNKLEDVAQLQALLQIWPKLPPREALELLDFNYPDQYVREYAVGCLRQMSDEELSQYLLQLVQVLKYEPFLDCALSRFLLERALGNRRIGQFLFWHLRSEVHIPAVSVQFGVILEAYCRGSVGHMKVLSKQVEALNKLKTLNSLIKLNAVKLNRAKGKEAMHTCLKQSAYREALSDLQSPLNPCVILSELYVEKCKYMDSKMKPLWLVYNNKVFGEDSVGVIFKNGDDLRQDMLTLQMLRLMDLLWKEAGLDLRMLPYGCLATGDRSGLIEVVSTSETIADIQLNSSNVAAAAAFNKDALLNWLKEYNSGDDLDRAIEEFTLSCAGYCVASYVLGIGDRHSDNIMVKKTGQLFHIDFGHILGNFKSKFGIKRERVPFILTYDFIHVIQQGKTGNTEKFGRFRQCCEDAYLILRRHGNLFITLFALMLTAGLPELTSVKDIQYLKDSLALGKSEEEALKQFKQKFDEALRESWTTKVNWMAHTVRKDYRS
# T4 sequence (P27986 whole entry partner): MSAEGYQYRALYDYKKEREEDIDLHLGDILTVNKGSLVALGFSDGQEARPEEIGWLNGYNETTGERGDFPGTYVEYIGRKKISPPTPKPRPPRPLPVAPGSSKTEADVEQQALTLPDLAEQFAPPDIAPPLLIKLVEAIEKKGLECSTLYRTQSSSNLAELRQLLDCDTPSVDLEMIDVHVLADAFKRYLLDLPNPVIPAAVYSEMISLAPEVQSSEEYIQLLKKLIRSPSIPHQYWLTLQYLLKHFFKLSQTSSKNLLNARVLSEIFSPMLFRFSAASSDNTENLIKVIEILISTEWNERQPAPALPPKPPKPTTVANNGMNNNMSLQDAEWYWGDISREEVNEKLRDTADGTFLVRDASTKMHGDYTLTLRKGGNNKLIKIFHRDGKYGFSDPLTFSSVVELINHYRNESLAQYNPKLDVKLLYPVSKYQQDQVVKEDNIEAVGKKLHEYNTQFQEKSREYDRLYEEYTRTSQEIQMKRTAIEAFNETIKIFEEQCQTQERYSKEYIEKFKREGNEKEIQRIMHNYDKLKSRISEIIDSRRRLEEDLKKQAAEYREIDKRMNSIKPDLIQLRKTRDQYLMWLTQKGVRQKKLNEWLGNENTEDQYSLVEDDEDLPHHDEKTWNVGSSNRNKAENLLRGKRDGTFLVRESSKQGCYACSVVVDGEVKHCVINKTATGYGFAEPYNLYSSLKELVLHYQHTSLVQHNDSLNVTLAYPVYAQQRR
# T1 sequence (P42336 whole entry): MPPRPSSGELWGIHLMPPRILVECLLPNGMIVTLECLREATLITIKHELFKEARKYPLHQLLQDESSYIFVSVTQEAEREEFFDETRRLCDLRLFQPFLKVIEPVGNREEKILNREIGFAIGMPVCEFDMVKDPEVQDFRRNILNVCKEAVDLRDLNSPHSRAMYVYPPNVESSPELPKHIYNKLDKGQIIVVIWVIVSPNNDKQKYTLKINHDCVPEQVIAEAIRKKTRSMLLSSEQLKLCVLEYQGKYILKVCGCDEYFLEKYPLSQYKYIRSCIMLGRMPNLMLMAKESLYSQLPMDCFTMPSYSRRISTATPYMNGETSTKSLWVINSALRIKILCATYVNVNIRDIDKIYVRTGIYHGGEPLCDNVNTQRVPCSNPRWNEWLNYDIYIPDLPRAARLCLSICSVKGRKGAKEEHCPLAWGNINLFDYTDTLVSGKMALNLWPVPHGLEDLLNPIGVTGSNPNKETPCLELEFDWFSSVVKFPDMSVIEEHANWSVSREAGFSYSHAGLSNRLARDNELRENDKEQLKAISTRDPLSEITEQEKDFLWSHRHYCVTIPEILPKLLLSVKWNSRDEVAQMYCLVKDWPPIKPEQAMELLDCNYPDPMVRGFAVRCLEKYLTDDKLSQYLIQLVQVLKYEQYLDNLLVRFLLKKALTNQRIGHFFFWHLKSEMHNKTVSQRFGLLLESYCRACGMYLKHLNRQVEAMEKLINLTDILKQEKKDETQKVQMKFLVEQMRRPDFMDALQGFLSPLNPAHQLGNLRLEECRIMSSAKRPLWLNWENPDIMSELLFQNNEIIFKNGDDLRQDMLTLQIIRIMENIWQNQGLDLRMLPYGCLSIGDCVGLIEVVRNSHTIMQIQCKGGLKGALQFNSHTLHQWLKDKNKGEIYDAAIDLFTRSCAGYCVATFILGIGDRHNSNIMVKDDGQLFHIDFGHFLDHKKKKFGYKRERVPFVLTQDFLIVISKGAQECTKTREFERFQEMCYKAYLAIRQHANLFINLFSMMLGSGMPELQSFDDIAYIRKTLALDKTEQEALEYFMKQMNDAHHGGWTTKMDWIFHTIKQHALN
# T1 sequence (P27986 whole entry partner): as the sequence (P27986 whole entry partner) above
# T3 sequence (O00329 whole entry): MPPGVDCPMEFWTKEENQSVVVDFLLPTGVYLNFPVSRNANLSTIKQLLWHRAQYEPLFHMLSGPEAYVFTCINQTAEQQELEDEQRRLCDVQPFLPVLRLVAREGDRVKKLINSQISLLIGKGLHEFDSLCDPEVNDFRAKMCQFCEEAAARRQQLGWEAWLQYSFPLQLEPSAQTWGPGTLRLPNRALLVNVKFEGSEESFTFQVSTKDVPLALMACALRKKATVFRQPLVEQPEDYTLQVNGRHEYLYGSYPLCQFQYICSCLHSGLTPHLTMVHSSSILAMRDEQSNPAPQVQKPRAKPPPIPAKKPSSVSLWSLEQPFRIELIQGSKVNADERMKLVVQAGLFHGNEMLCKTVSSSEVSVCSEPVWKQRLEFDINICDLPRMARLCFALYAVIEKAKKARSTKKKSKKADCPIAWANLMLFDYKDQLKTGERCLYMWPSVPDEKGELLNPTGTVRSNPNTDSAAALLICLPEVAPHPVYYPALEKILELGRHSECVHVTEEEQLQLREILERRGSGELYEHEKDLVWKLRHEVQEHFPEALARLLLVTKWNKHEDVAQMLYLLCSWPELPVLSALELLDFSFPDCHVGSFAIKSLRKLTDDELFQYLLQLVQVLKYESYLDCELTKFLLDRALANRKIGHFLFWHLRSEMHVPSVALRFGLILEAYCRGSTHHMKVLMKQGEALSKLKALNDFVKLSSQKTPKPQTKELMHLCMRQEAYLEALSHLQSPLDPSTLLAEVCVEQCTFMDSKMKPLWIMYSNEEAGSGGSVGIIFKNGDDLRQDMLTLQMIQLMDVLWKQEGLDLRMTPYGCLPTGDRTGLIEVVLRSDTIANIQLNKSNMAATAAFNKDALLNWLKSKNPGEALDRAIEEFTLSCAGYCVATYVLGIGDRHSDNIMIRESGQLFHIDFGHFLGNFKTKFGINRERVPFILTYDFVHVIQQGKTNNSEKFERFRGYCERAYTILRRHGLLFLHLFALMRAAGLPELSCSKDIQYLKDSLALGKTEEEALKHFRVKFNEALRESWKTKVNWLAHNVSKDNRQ
# T3 sequence (P27986 whole entry partner): as the sequence (P27986 whole entry partner) above
# T2 sequence (P48736 whole entry): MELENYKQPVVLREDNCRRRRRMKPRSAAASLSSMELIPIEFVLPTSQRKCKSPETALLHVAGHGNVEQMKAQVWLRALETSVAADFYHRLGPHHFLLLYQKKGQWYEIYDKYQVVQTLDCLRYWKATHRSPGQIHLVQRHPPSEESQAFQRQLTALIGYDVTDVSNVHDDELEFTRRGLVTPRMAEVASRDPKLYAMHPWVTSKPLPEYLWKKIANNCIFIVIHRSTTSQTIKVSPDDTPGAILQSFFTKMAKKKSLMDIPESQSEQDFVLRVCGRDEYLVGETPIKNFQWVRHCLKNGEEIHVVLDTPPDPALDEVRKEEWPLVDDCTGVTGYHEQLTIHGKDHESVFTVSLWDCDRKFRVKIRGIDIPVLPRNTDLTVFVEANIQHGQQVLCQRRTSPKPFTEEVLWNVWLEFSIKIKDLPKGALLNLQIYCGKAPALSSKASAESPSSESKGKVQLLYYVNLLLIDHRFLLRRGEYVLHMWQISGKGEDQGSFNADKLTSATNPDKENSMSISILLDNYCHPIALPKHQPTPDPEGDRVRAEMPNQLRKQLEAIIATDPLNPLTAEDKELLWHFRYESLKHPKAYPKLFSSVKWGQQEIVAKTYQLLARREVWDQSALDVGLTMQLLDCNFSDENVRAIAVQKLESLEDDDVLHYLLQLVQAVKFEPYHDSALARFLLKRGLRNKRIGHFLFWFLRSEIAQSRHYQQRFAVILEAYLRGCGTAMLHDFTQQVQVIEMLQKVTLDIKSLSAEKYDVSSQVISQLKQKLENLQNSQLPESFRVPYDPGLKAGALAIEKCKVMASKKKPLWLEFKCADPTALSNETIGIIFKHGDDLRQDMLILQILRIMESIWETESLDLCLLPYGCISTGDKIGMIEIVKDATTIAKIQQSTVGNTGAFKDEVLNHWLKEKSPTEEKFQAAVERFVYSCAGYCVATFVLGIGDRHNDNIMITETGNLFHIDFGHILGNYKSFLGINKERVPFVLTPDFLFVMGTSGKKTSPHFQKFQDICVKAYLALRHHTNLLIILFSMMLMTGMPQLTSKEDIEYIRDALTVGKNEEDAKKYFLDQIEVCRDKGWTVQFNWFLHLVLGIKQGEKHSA
SMILES,CL/F [1] [L/h/kg],CL/F [2] [L/h/kg],CL/F [3] [L/h/kg],CL/F [4] [L/h/kg],pIC50 (PI3K (p110α/p85α) (h)),pIC50 (PI3K (p120γ) (h)),pIC50 (PI3K (p110δ/p85α) (h)),pIC50 (PI3K (h) p110β/p85α),half-life at 5 μM [5] [min],CLint scaled at 5 μM [5] [mL/min/kg],AUC(0-t) [3] [ng·h/mL],half-life [3] [min],Vd [3] [L/kg],bioavailability [3] [%],CLint scaled at 5 μM [6] [mL/min/kg],half-life at 5 μM [6] [min]
"CC[C@H](Nc1ncnc(N)c1-c1nc(C)no1)c1nc2cccc(Cl)c2c(=O)n1C1CC1 [Ex. 4, (S)-2-(1-((6-amino-5-(3-methyl-1,2,4-oxadiazol-5-yl)pyrimidin-4-yl)amino)-propyl)-5-chloro-3-cyclopropylquinazolin-4(3H)-one]",0.696,0.58,1.29,,,,,,,,,,,,,
"Cc1noc(-c2c(N)ncnc2N[C@@H](C)c2nc3cccc(Cl)c3c(=O)n2-c2ccccc2)n1 [Ex. 65, (S)-2-(1-((6-amino-5-(3-methyl-1,2,4-oxadiazol-5-yl)pyrimidin-4-yl)amino)ethyl)-5-chloro-3-phenylquinazolin-4(3H)-one]",0.92,0.37,,1.90,,,,,,,,,,,,
"Cc1noc(-c2c(N)ncnc2N[C@@H](C)c2nc3cccc(-c4cnn(C)c4)c3c(=O)n2C2CC2)n1 [Ex. 66, (S)-2-(1-((6-amino-5-(3-methyl-1,2,4-oxadiazol-5-yl)pyrimidin-4-yl)amino)ethyl)-3-cyclopropyl-5-(1-methyl-1H-pyrazol-4-yl)quinazolin-4(3H)-one]",,,2.36,,5.66,6.06,7.80,5.74,66.4,26.2,423,58.8,2.98,96.2,15.2,164
"Cc1nnc(-c2c(N)ncnc2N[C@@H](C)c2nc3cccc(-c4cnn(C)c4)c3c(=O)n2-c2ccccc2)o1 [Ex. 69, (S)-2-(1-((6-amino-5-(5-methyl-1,3,4-oxadiazol-2-yl)pyrimidin-4-yl)amino)ethyl)-5-(1-methyl-1H-pyrazol-4-yl)-3-phenylquinazolin-4(3H)-one]",,,0.90,,< 5.52,5.93,7.66,< 5.52,138,12.6,1100,75,1.54,83,9.99,249
"CC[C@H](Nc1ncnc(N)c1-c1nnc(C)o1)c1nc2cccc(-c3cnn(C)c3)c2c(=O)n1C1CC1 [Ex. 72, (S)-2-(1-((6-amino-5-(5-methyl-1,3,4-oxadiazol-2-yl)pyrimidin-4-yl)amino)propyl)-3-cyclopropyl-5-(1-methyl-1H-pyrazol-4-yl)quinazolin-4(3H)-one]",,,3.95,,< 5.52,< 5.52,6.85,< 5.52,,,270,58.8,3.85,35.9,,

# Continued, values first:
CL/F [1] [L/h/kg],CL/F [2] [L/h/kg],CL/F [3] [L/h/kg],CL/F [4] [L/h/kg],pIC50 (PI3K (p110α/p85α) (h)),pIC50 (PI3K (p120γ) (h)),pIC50 (PI3K (p110δ/p85α) (h)),pIC50 (PI3K (h) p110β/p85α),half-life at 5 μM [5] [min],CLint scaled at 5 μM [5] [mL/min/kg],AUC(0-t) [3] [ng·h/mL],half-life [3] [min],Vd [3] [L/kg],bioavailability [3] [%],CLint scaled at 5 μM [6] [mL/min/kg],half-life at 5 μM [6] [min],SMILES
,,0.35,,5.85,7.04,8.40,5.93,73,23.8,2690,108,0.89,70,17.6,141,"Cc1noc(-c2c(N)ncnc2N[C@@H](C)c2nc3cccc(-c4cnn(C)c4)c3c(=O)n2-c2ccccc2)n1 [Ex. 68, (S)-2-(1-((6-amino-5-(3-methyl-1,2,4-oxadiazol-5-yl)pyrimidin-4-yl)amino)ethyl)-5-(1-methyl-1H-pyrazol-4-yl)-3-phenylquinazolin-4(3H)-one]"
,,3.84,,5.88,6.32,7.80,6.12,,,256,64.2,4.9,85.5,,,"CC[C@H](Nc1ncnc(N)c1-c1nc(C)no1)c1nc2cccc(-c3cnn(C)c3)c2c(=O)n1C1CC1 [Ex. 71, (S)-2-(1-((6-amino-5-(3-methyl-1,2,4-oxadiazol-5-yl)pyrimidin-4-yl)amino)propyl)-3-cyclopropyl-5-(1-methyl-1H-pyrazol-4-yl)quinazolin-4(3H)-one]"

# From US9518046B2 (Calitor Sciences, LLC, priority 2015, dated 2016)
